Test results taken from ChEMBL document CHEMBL1129588, “Development of potent thrombin receptor antagonist peptides” (J Med Chem, 1996).

What follows are compounds tested against T1, Proteinase-activated receptor 1 (Homo sapiens, UniProt P25116).
T1 sequence (P25116 whole entry): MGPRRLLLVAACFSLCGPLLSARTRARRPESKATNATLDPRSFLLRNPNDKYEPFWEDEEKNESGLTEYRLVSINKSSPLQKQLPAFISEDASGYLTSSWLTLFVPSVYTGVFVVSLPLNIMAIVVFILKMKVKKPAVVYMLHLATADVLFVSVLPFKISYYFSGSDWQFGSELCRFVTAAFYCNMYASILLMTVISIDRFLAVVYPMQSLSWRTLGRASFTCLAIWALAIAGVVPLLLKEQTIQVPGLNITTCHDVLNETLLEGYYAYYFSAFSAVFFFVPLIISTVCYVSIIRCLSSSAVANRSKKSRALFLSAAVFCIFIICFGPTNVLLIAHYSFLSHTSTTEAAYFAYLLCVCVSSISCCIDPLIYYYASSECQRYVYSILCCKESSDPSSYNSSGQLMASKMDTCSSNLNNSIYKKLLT

Row | Compound | IC50 [µM]
1 | CC(=O)N(C(=O)c1ccc(-c2ccccc2)cc1)[C@@H](Cc1ccc(F)cc1)C(=O)N[C@@H](Cc1ccc(NC(=N)N)cc1)C(=O)N[C@@H](CC(C)C)C(=O)N[C@@H](CCCN=C(N)N)C(N)=O | 0.046
2 | COc1ccc(/C=C/C(=O)N(C(C)=O)[C@@H](Cc2ccc(F)cc2)C(=O)N[C@@H](Cc2ccc(NC(=N)N)cc2)C(=O)N[C@@H](CC(C)C)C(=O)N[C@@H](CCCN=C(N)N)C(N)=O)cc1 | 0.04
3 | CC(=O)N(C(=O)/C=C/c1ccccc1)[C@@H](Cc1ccc(F)cc1)C(=O)N[C@@H](Cc1ccc(NC(=N)N)cc1)C(=O)N[C@@H](CC(C)C)C(=O)N[C@@H](CCCN=C(N)N)C(=O)N[C@@H](CCCN)C(=O)CCC(N)=O | 0.0219
4 | CC(=O)N(C(=O)/C=C/c1ccccc1)[C@@H](Cc1ccc(F)cc1)C(=O)N[C@@H](Cc1ccc(NC(=N)N)cc1)C(=O)N[C@@H](CC(C)C)C(=O)N[C@@H](CCCN)C(=O)CC(N)=O | 0.044
5 | CC(=O)N(C(=O)/C=C/c1ccccc1)[C@@H](Cc1ccc(F)cc1)C(=O)N[C@@H](Cc1ccc(NC(=N)N)cc1)C(=O)N[C@@H](CC(C)C)C(=O)N[C@@H](CCCN)C(N)=O | 0.017
6 | CC(=O)N(C(=O)/C=C/c1ccccc1)[C@@H](Cc1ccc(F)cc1)C(=O)N[C@@H](Cc1ccc(NC(=N)N)cc1)C(=O)N[C@@H](CCCN)C(N)=O | 0.87
7 | CC(=O)N(c1cccs1)[C@@H](Cc1ccc(F)cc1)C(=O)N[C@@H](Cc1ccc(NC(=N)N)cc1)C(=O)N[C@@H](CC(C)C)C(=O)N[C@@H](CCCN=C(N)N)C(N)=O | 0.26
8 | CC(=O)N(C(=O)/C=C/c1cccc(Cl)c1)[C@@H](Cc1ccc(F)cc1)C(=O)N[C@@H](Cc1ccc(NC(=N)N)cc1)C(=O)N[C@@H](CC(C)C)C(=O)N[C@@H](CCCN=C(N)N)C(N)=O | 0.041
9 | CC(=O)N(c1c[nH]c2ccccc12)[C@@H](Cc1ccc(F)cc1)C(=O)N[C@@H](Cc1ccc(NC(=N)N)cc1)C(=O)N[C@@H](CC(C)C)C(=O)N[C@@H](CCCN=C(N)N)C(N)=O | 0.5
10 | CC(=O)N(C(=O)/C=C/c1ccccc1)[C@@H](Cc1ccc(F)cc1)C(=O)N[C@@H](Cc1ccc(N)cc1)C(=O)N[C@@H](CC(C)C)C(=O)N[C@@H](CCCN=C(N)N)C(N)=O | 0.37
11 | CC(=O)N(C1CCCC1)[C@@H](Cc1ccc(F)cc1)C(=O)N[C@@H](Cc1ccc(NC(=N)N)cc1)C(=O)N[C@@H](CC(C)C)C(=O)N[C@@H](CCCN=C(N)N)C(N)=O | 0.37
12 | CC(=O)N(C(=O)/C=C/c1ccccc1)[C@@H](Cc1ccc(F)cc1)C(=O)N[C@@H](Cc1ccc(NC(=N)N)cc1)C(=O)N[C@@H](CC(C)C)C(N)=O | 0.11
13 | CC(=O)N(C(=O)/C=C/c1ccccc1)[C@@H](Cc1ccc(F)cc1)C(=O)N[C@@H](Cc1ccc(NC(=N)N)cc1)C(N)=O | 0.78
14 | CC(=O)N(C(=O)/C=C/c1ccc(Cl)cc1)[C@@H](Cc1ccc(F)cc1)C(=O)N[C@@H](Cc1ccc(NC(=N)N)cc1)C(=O)N[C@@H](CC(C)C)C(=O)N[C@@H](CCCN=C(N)N)C(N)=O | 0.099
15 | COc1ccc(C[C@H](NC(=O)[C@H](Cc2ccc(F)cc2)N(C(C)=O)C(=O)/C=C/c2ccccc2)C(=O)N[C@@H](CC(C)C)C(=O)N[C@@H](CCCN=C(N)N)C(N)=O)cc1 | 1.18
16 | CC(=O)N(C(=O)/C=C/c1ccccc1)[C@@H](Cc1ccc(F)cc1)C(=O)N[C@@H](CCCN=C(N(C)C)N(C)C)C(=O)N[C@@H](CC(C)C)C(=O)N[C@@H](CCCN=C(N)N)C(N)=O | 0.32
17 | CC(=O)N(C(=O)/C=C/c1ccccc1)[C@@H](Cc1ccc(F)cc1)C(=O)N[C@@H](Cc1ccc(NC(=N)N)cc1)C(=O)N[C@@H](CC(C)C)C(=O)N[C@@H](CCCN=C(N)N)C(N)=O | 0.0078
18 | CC(=O)N(C(=O)/C=C/c1ccccc1)[C@@H](Cc1ccc(F)cc1)C(=O)N[C@@H](Cc1ccc(NC(=N)N)cc1)C(=O)N[C@@H](CC(C)C)C(=O)N[C@@H](CCCN=C(N)N)C(=O)N[C@@H](CCCN)C(=O)CC(N)=O | 0.0166
19 | CC(=O)N(C(=O)/C=C/c1ccccc1)[C@@H](Cc1ccc(F)cc1)C(=O)N[C@@H](CCN=C(N(C)C)N(C)C)C(=O)N[C@@H](CC(C)C)C(=O)N[C@@H](CCCN=C(N)N)C(N)=O | 0.34
20 | CC(=O)N(C(=O)/C=C/c1ccccc1)[C@@H](Cc1ccc(F)cc1)C(=O)N[C@@H](CCCCN=C(N(C)C)N(C)C)C(=O)N[C@@H](CC(C)C)C(=O)N[C@@H](CCCN=C(N)N)C(N)=O | 0.13
21 | CC(=O)N(CC(=O)N[C@@H](Cc1ccc(NC(=N)N)cc1)C(=O)N[C@@H](CC(C)C)C(=O)N[C@@H](CCCN=C(N)N)C(N)=O)C(=O)/C=C/c1ccccc1 | > 30
22 | CC(=O)N(C(=O)/C=C/c1ccccc1)[C@@H](Cc1ccc(F)cc1)C(=O)N[C@@H](CCCCN)C(=O)N[C@@H](CC(C)C)C(=O)N[C@@H](CCCN=C(N)N)C(N)=O | 0.039
23 | CC(=O)N(c1cccnc1)[C@@H](Cc1ccc(F)cc1)C(=O)N[C@@H](Cc1ccc(NC(=N)N)cc1)C(=O)N[C@@H](CC(C)C)C(=O)N[C@@H](CCCN=C(N)N)C(N)=O | 0.95

Row | Compound | IC50 [µM]
24 | CC(=O)N(C(=O)Cc1ccc2ccccc2c1)[C@@H](Cc1ccc(F)cc1)C(=O)N[C@@H](Cc1ccc(NC(=N)N)cc1)C(=O)N[C@@H](CC(C)C)C(=O)N[C@@H](CCCN=C(N)N)C(N)=O | 0.295
25 | CCCC(=O)c1ccc(N(C(C)=O)[C@@H](Cc2ccc(F)cc2)C(=O)N[C@@H](Cc2ccc(NC(=N)N)cc2)C(=O)N[C@@H](CC(C)C)C(=O)N[C@@H](CCCN=C(N)N)C(N)=O)cc1 | 1.26
26 | CC(=O)N(C(=O)/C=C/c1ccc(N)cc1)[C@@H](Cc1ccc(F)cc1)C(=O)N[C@@H](Cc1ccc(NC(=N)N)cc1)C(=O)N[C@@H](CC(C)C)C(=O)N[C@@H](CCCN=C(N)N)C(N)=O | 0.061
27 | CC(=O)N(C(=O)c1cc2ccccc2oc1=O)[C@@H](Cc1ccc(F)cc1)C(=O)N[C@@H](Cc1ccc(NC(=N)N)cc1)C(=O)N[C@@H](CC(C)C)C(=O)N[C@@H](CCCN=C(N)N)C(N)=O | 4.33
28 | C=CC(=O)c1ccsc1N(C(C)=O)[C@@H](Cc1ccc(F)cc1)C(=O)N[C@@H](Cc1ccc(NC(=N)N)cc1)C(=O)N[C@@H](CC(C)C)C(=O)N[C@@H](CCCN=C(N)N)C(N)=O | 0.023
29 | CC(=O)N(C(=O)c1cccc(C2CCCCC2)c1)[C@@H](Cc1ccc(F)cc1)C(=O)N[C@@H](Cc1ccc(NC(=N)N)cc1)C(=O)N[C@@H](CC(C)C)C(=O)N[C@@H](CCCN=C(N)N)C(N)=O | 2.32
30 | CC(=O)N(c1ccsc1)[C@@H](Cc1ccc(F)cc1)C(=O)N[C@@H](Cc1ccc(NC(=N)N)cc1)C(=O)N[C@@H](CC(C)C)C(=O)N[C@@H](CCCN=C(N)N)C(N)=O | 0.31
31 | CC(=O)N(c1ccc(F)cc1)[C@@H](Cc1ccc(F)cc1)C(=O)N[C@@H](Cc1ccc(NC(=N)N)cc1)C(=O)N[C@@H](CC(C)C)C(=O)N[C@@H](CCCN=C(N)N)C(N)=O | 0.35
32 | CC(=O)N(Oc1c[nH]c2ccccc12)[C@@H](Cc1ccc(F)cc1)C(=O)N[C@@H](Cc1ccc(NC(=N)N)cc1)C(=O)N[C@@H](CC(C)C)C(=O)N[C@@H](CCCN=C(N)N)C(N)=O | 0.13
33 | CC(=O)N(C(=O)COc1ccccc1)[C@@H](Cc1ccc(F)cc1)C(=O)N[C@@H](Cc1ccc(NC(=N)N)cc1)C(=O)N[C@@H](CC(C)C)C(=O)N[C@@H](CCCN=C(N)N)C(N)=O | 0.021
34 | CC(C)C[C@H](NC(=O)[C@@H](N)CCCN=C(N)N)C(=O)N[C@@H](CCCN)C(=O)N[C@@H](Cc1ccc(F)cc1)C(=O)NC(=O)/C=C/c1ccccc1 | 0.17
35 | CC(=O)N(C(=O)/C=C/c1ccccc1)[C@@H](Cc1ccccc1)C(=O)N[C@@H](Cc1ccc(NC(=N)N)cc1)C(=O)N[C@@H](CC(C)C)C(=O)N[C@@H](CCCN=C(N)N)C(N)=O | 0.024
36 | CC(=O)N(C(=O)/C=C/c1ccccc1)[C@@H](Cc1ccc(F)cc1)C(=O)NC(=O)NCCC[C@H](NC(=O)[C@H](CC(C)C)NC(=O)[C@@H](N)CCCN=C(N)N)C(=O)O | 1.04
37 | CC(=O)N(C(=O)/C=C/c1ccccc1)[C@@H](Cc1ccc(F)cc1)C(=O)N[C@@H](Cc1cccnc1)C(=O)N[C@@H](CC(C)C)C(=O)N[C@@H](CCCN=C(N)N)C(N)=O | 0.34
38 | CC(=O)N(C(=O)/C=C/c1ccccc1)[C@@H](Cc1ccc(F)cc1)C(=O)N[C@@H](Cc1ccc([N+](=O)[O-])cc1)C(=O)N[C@@H](CC(C)C)C(=O)N[C@@H](CCCN=C(N)N)C(N)=O | 7.55
39 | CC(=O)N(C(=O)/C=C/c1ccccc1)[C@@H](Cc1ccc(F)cc1)C(=O)N[C@@H](Cc1ccccc1)C(=O)N[C@@H](CC(C)C)C(=O)N[C@@H](CCCN=C(N)N)C(N)=O | 1.12
40 | CC(=O)N(C(=O)/C=C/c1ccccc1)[C@@H](Cc1ccc(F)cc1)C(=O)N[C@@H](Cc1ccc(Cl)cc1)C(=O)N[C@@H](CC(C)C)C(=O)N[C@@H](CCCN=C(N)N)C(N)=O | 4.71
41 | CC(=O)N(c1ccccc1F)[C@@H](Cc1ccc(F)cc1)C(=O)N[C@@H](Cc1ccc(NC(=N)N)cc1)C(=O)N[C@@H](CC(C)C)C(=O)N[C@@H](CCCN=C(N)N)C(N)=O | 0.56
42 | CC(=O)N(C(=O)/C=C/c1ccc(O)cc1)[C@@H](Cc1ccc(F)cc1)C(=O)N[C@@H](Cc1ccc(NC(=N)N)cc1)C(=O)N[C@@H](CC(C)C)C(=O)N[C@@H](CCCN=C(N)N)C(N)=O | 0.062
43 | CC(=O)N(Oc1cccs1)[C@@H](Cc1ccc(F)cc1)C(=O)N[C@@H](Cc1ccc(NC(=N)N)cc1)C(=O)N[C@@H](CC(C)C)C(=O)N[C@@H](CCCN=C(N)N)C(N)=O | 0.22
44 | CCC(=O)c1cccc(N(C(C)=O)[C@@H](Cc2ccc(F)cc2)C(=O)N[C@@H](Cc2ccc(NC(=N)N)cc2)C(=O)N[C@@H](CC(C)C)C(=O)N[C@@H](CCCN=C(N)N)C(N)=O)c1 | 0.042
45 | CC(=O)N(C(=O)CSc1ccccc1)[C@@H](Cc1ccc(F)cc1)C(=O)N[C@@H](Cc1ccc(NC(=N)N)cc1)C(=O)N[C@@H](CC(C)C)C(=O)N[C@@H](CCCN=C(N)N)C(N)=O | 0.019
